Measurements as given in patent publication US11298356B1, “Amorphous solid dispersions of dasatinib and uses thereof” (NANOCOPOEIA, LLC, priority 2020, dated 2022).
Values after ≈ are worked out from the molar mass of the structure shown.

Assays:
[1] = Aqueous solubility of dasatinib (internal experimentation); format: physicochemical; details: aqueous medium
Source text: Dasatinib in crystalline forms is categorized as a Biopharmaceutical Classification System (“BCS”) Class II (low solubility/high permeability) compound. […] A preparation of dasatinib in a form that is intended to enhance its solubility could increase its bioavailability. One approach for enhancing solubility is to produce an amorphous solid dispersion.

[2] = crystalline forms; low solubility/high permeability; cited from earlier work
[3] = Comparative Example; promptly after preparation
Method: (§1) Each of the resulting ASDs was placed on stability under accelerated conditions at 40° C./75% RH. The ASDs were assessed at t=0 (i.e., after the secondary drying step), 2 weeks, 1 month, 2 months, 3 months, and 6 months for appearance, amorphicity, glass transition temperature, water content, and assay/total impurities.
In general, about 5-10 mg of ASD powder was loaded in a TA Tzero low-mass aluminum pan and sealed with a Tzero lid.

[4] = Comparative Example; promptly after spray drying and drying
Method: as §1
Amorphicity (i.e., the lack of crystallinity) for the ASDs was assessed by XRD. Diffraction patterns were obtained using a Rigaku MiniFlex 600. The X-ray source was a long anode Cu Kα. Samples were prepared by placing a small amount of ASD powder on a Rigaku zero-background sample holder with a 0.1 mm indent. A glass slide was then used to firmly pack the powder and ensure the surface of the sample was level with the edge of the sample holder.
Rigaku Data Analysis Software PDXL 2.4.2.0 was used to determine crystallinity. Briefly, a linear background was obtained by connecting the beginning and end of each diffractogram. Peaks were then fitted to split pseudo-Voigt shape by the Lorentzian function. Generally, narrow peaks with full width at half maximum (FWHM) less than 1° were assigned as crystalline phase. If no crystalline phase was detected, the sample was deemed to be amorphous.

solubility ([1]; pH 2, simulated gastric fluid) [µg/mL]	solubility ([1]; pH 6.2, aqueous buffer) [µg/mL]	glass transition temperature (Tg) [3] [°C]	XRD crystallinity [4]	Structure (SMILES)	Biopharmaceutical Classification System (BCS) class [2]
~1400 (≈ 2870 µM)	< 1			Cc1nc(Nc2ncc(C(=O)Nc3c(C)cccc3Cl)s2)cc(N2CCN(CCO)CC2)n1 [Dasatinib, N-(2-chloro-6-methylphenyl)-2-[[6-[4-(2-hydroxyethyl)-1-piperazinyl]-2-methyl-4-pyrimidinyl]amino]-5-thiazolecarboxamide]	Class II
		125.61	exhibited crystalline character	Cc1nc(Nc2ncc(C(=O)Nc3c(C)cccc3Cl)s2)cc(N2CCN(CCO)CC2)n1 [spray-dried material of 100% dasatinib]	
